Measured values: patent US20060088542A1 (priority 2002, published 2006)
“Also recorded” adds a separate entry of the source.

What was measured:
[1] = test system: Balb/C mice; assay: ELISA for subclass (IgG1/IgG2a) of HBsAg specific antibody; format: in vivo; conditions: Example 6; HBsAg specific antibody in serum; FIG. 15
[2] = test system: Balb/C mice; assay: IFN-g ELISPOT of spleen cells after HBsAg DNA vaccine immunization; conditions: Example 2; prime and boost; FIG. 4
[3] = test system: Balb/C mice; assay: Anti-sAg and anti-cAg antibody ELISAs after PMID with HBV sAg/cAg plasmid; format: in vivo; conditions: Example 7; either HBV antigen (sAg, cAg); data not shown
[4] = test system: Balb/C mice; assay: IL-4 ELISPOT after PMID with HBV sAg/cAg plasmid; format: in vivo
[5] = test system: Balb/C mice; assay: CD8 IFN-g ELISA of spleen cells after HBsAg DNA vaccine immunization; conditions: Example 2; prime and boost; FIG. 4
[6] = test system: Balb/C mice; conditions: Example 2; prime and boost, HBsAg plasmid with HCMV promoter; FIG. 3
[7] = test system: Balb/C mice; assay: g-IFN ELISPOT after PMID with HBV sAg/cAg plasmid; format: in vivo
[8] = Example 7, summary of both experiments

Row | SMILES | ratio of IgG1/IgG2a [1] | cellular response, ELISPOTs [2] | antibody titers [3] | IL-4 secretion, as measured by ELISPOT assay ([4]; Example 7, first experiment (prime only), not shown) | EL-4 ELISPOTs [4, 8] | cellular response, IFN-g ELISA [5] | Antibody levels [6] | g-IFN secretion ([7]; Example 7, first experiment, highest dose of DNA, delivered right before or right after PMID) | g-IFN secretion ([7]; Example 7, first experiment, highest dose of DNA, given 24 hours after PMID) | g-IFN secretion ([7]; Example 7, first experiment, low doses of DNA, administration 24 hours post PMID compared with other time points) | g-IFN secretion ([7]; Example 7, first experiment, low doses of HBV-encoding DNA, right before, right after or 24 hours post PMID) | g-IFN response with class I-restricted peptide (CD8+ cells) ([7]; Example 7, first experiment, not shown) | frequency of cells which secreted g-IFN in response to antigen ([7]; Example 7, first experiment, sAg peptide library (primarily CD4+ cells), 2 weeks post prime, FIG. 16) | IFN-g ELISPOT response [7, 8] | optimal time point for augmenting g-IFN-secreting cells ([7]; Example 7, time of administration relative to PMID)
1 | CCCCC[C@H](O)/C=C/[C@H]1[C@H](O)CC(=O)[C@@H]1C/C=C\CCCC(=O)O [PGE2] | does not have the same effect overall |  |  |  |  |  |  |  |  |  |  |  |  |  | 
2 | CC(C)Cn1cnc2c(N)nc3ccccc3c21 [imiquimod, 1-(2-methyl-propyl)-1H-imidazo[4,5-c]quinolin-4-amine] |  | enhanced the responses | little effect; also recorded: did not enhance antibody responses | no effect | little effect | enhanced the responses | strong reduction in antibody levels | slightly inhibitory | augments PMID | most effective | enhances g-IFN secretion | comaparable responses | enhancement of the frequency of cells which secreted g-IFN | primarily enhanced; also recorded: augments the frequency of g-IFN-secreting cells | about a day and upto 7 days after PMID
